Calls of active or inactive are those of the source. The rule behind the calls is not given here.
System: Plasmodium yoelii nigeriensis
Assay: Antimalarial activity against chloroquine-, mefloquine-, halofantrine-resistant Plasmodium yoelii nigeriensis blood stream schizonts infected in Swiss mouse assessed as suppression of parasitemia at 48 mg/kg, im administered once daily for 4 days relative to control
Assay type: functional
Conditions: route intramuscular

Q: Which Activity does the source give for C[C@H]1[C@@H](OCCCCCOC(=O)CCC(=O)O)O[C@@H]2O[C@@]3(C)CC[C@H]4[C@H](C)CC[C@@H]1[C@@]24OO3 here?
A: 94.91%

Q: Which Activity does the source give for C[C@H]1[C@@H](OCCCCCCCCCCO)O[C@@H]2O[C@@]3(C)CC[C@H]4[C@H](C)CC[C@@H]1[C@@]24OO3 here?
A: 100%

Q: For C[C@H]1[C@@H](OCCCCCCO)O[C@@H]2O[C@@]3(C)CC[C@H]4[C@H](C)CC[C@@H]1[C@@]24OO3, which Activity is on record?
A: 100%

Q: Which Activity does the source give for C[C@H]1[C@@H](OCCOCCOCCO)O[C@@H]2O[C@@]3(C)CC[C@H]4[C@H](C)CC[C@@H]1[C@@]24OO3 here?
A: 100%

Q: With C[C@H]1[C@@H](OCCOCCOCCOCCOC(=O)CCC(=O)O)O[C@@H]2O[C@@]3(C)CC[C@H]4[C@H](C)CC[C@@H]1[C@@]24OO3 as the compound, how does the Activity read?
A: 97%

Q: Which Activity does the source give for C[C@H]1[C@@H](OCCOCCOCCOC(=O)CCC(=O)O)O[C@@H]2O[C@@]3(C)CC[C@H]4[C@H](C)CC[C@@H]1[C@@]24OO3 here?
A: 92%

System: Plasmodium yoelii nigeriensis
Assay: Antimalarial activity against chloroquine-, mefloquine-, halofantrine-resistant Plasmodium yoelii nigeriensis blood stream schizonts infected in Swiss mouse assessed as suppression of parasitemia at 24 mg/kg, im administered once daily for 4 days relative to control
Assay type: functional
Conditions: route intramuscular

Q: For C[C@H]1[C@@H](OCCCCCOC(=O)CCC(=O)O)O[C@@H]2O[C@@]3(C)CC[C@H]4[C@H](C)CC[C@@H]1[C@@]24OO3, which Activity is on record?
A: 92.73%

Q: Which Activity does the source give for C[C@H]1[C@@H](OCCCCCCCCCCO)O[C@@H]2O[C@@]3(C)CC[C@H]4[C@H](C)CC[C@@H]1[C@@]24OO3 here?
A: 100%

Q: Which Activity does the source give for C[C@H]1[C@@H](OCCCCCCO)O[C@@H]2O[C@@]3(C)CC[C@H]4[C@H](C)CC[C@@H]1[C@@]24OO3 here?
A: 100%

Q: Which Activity does the source give for C[C@H]1[C@@H](OCCOCCOCCO)O[C@@H]2O[C@@]3(C)CC[C@H]4[C@H](C)CC[C@@H]1[C@@]24OO3 here?
A: 100%

System: Plasmodium yoelii nigeriensis
Assay: Antimalarial activity against chloroquine-, mefloquine-, halofantrine-resistant Plasmodium yoelii nigeriensis blood stream schizonts infected in Swiss mouse assessed as suppression of parasitemia at 12 mg/kg, im administered once daily for 4 days relative to control
Assay type: functional
Conditions: route intramuscular

Q: With C[C@H]1[C@@H](OCCCCCCCCCCO)O[C@@H]2O[C@@]3(C)CC[C@H]4[C@H](C)CC[C@@H]1[C@@]24OO3 as the compound, how does the Activity read?
A: 100%

Q: With C[C@H]1[C@@H](OCCCCCCO)O[C@@H]2O[C@@]3(C)CC[C@H]4[C@H](C)CC[C@@H]1[C@@]24OO3 as the compound, how does the Activity read?
A: 100%

Q: With C[C@H]1[C@@H](OCCOCCOCCO)O[C@@H]2O[C@@]3(C)CC[C@H]4[C@H](C)CC[C@@H]1[C@@]24OO3 as the compound, how does the Activity read?
A: 100%

System: Plasmodium yoelii nigeriensis
Assay: Antimalarial activity against chloroquine-, mefloquine-, halofantrine-resistant Plasmodium yoelii nigeriensis blood stream schizonts infected in Swiss mouse assessed as suppression of parasitemia at 6 mg/kg, im administered once daily for 4 days relative to control
Assay type: functional
Conditions: route intramuscular

Q: Which Activity does the source give for C[C@H]1[C@@H](OCCCCCCCCCCO)O[C@@H]2O[C@@]3(C)CC[C@H]4[C@H](C)CC[C@@H]1[C@@]24OO3 here?
A: 100%

Q: For C[C@H]1[C@@H](OCCCCCCO)O[C@@H]2O[C@@]3(C)CC[C@H]4[C@H](C)CC[C@@H]1[C@@]24OO3, which Activity is on record?
A: 100%

System: Plasmodium yoelii nigeriensis
Assay: Antimalarial activity against chloroquine-, mefloquine-, halofantrine-resistant Plasmodium yoelii nigeriensis blood stream schizonts infected in Swiss mouse assessed as suppression of parasitemia at 3 mg/kg, im administered once daily for 4 days relative to control
Assay type: functional
Conditions: route intramuscular

Q: Which Activity does the source give for C[C@H]1[C@@H](OCCCCCCO)O[C@@H]2O[C@@]3(C)CC[C@H]4[C@H](C)CC[C@@H]1[C@@]24OO3 here?
A: 100%

System: Plasmodium yoelii nigeriensis
Assay: Antimalarial activity against chloroquine-, mefloquine-, halofantrine-resistant Plasmodium yoelii nigeriensis blood stream schizonts infected in Swiss mouse assessed as disease cured mouse at 48 mg/kg, im administered once daily for 4 days measured on day 28
Assay type: functional, organism-based
Set-up: dose 48 mg/kg
Conditions: not given

Q: Which Activity does the source give for C[C@H]1[C@@H](OCCCCCOC(=O)CCC(=O)O)O[C@@H]2O[C@@]3(C)CC[C@H]4[C@H](C)CC[C@@H]1[C@@]24OO3 here?
A: inactive

Q: For C[C@H]1[C@@H](OCCCCCCCCCCO)O[C@@H]2O[C@@]3(C)CC[C@H]4[C@H](C)CC[C@@H]1[C@@]24OO3, which Activity is on record?
A: Active

Q: For C[C@H]1[C@@H](OCCCCCCO)O[C@@H]2O[C@@]3(C)CC[C@H]4[C@H](C)CC[C@@H]1[C@@]24OO3, which Activity is on record?
A: Active

Q: Which Activity does the source give for C[C@H]1[C@@H](OCCOCCOCCOCCOC(=O)CCC(=O)O)O[C@@H]2O[C@@]3(C)CC[C@H]4[C@H](C)CC[C@@H]1[C@@]24OO3 here?
A: inactive

System: Plasmodium yoelii nigeriensis
Assay: Antimalarial activity against chloroquine-, mefloquine-, halofantrine-resistant Plasmodium yoelii nigeriensis blood stream schizonts infected in Swiss mouse assessed as disease cured mouse at 24 mg/kg, im administered once daily for 4 days measured on day 28
Assay type: functional, organism-based
Set-up: dose 24 mg/kg
Conditions: not given

Q: Which Activity does the source give for C[C@H]1[C@@H](OCCCCCOC(=O)CCC(=O)O)O[C@@H]2O[C@@]3(C)CC[C@H]4[C@H](C)CC[C@@H]1[C@@]24OO3 here?
A: inactive

Q: For C[C@H]1[C@@H](OCCCCCCO)O[C@@H]2O[C@@]3(C)CC[C@H]4[C@H](C)CC[C@@H]1[C@@]24OO3, which Activity is on record?
A: Active

Q: Which Activity does the source give for C[C@H]1[C@@H](OCCOCCOCCO)O[C@@H]2O[C@@]3(C)CC[C@H]4[C@H](C)CC[C@@H]1[C@@]24OO3 here?
A: inactive

System: Plasmodium yoelii nigeriensis
Assay: Antimalarial activity against chloroquine-, mefloquine-, halofantrine-resistant Plasmodium yoelii nigeriensis blood stream schizonts infected in Swiss mouse assessed as disease cured mouse at 12 mg/kg, im administered once daily for 4 days measured on day 28
Assay type: functional, organism-based
Set-up: dose 12 mg/kg
Conditions: not given

Q: For C[C@H]1[C@@H](OCCCCCCCCCCO)O[C@@H]2O[C@@]3(C)CC[C@H]4[C@H](C)CC[C@@H]1[C@@]24OO3, which Activity is on record?
A: inactive

Q: With C[C@H]1[C@@H](OCCCCCCO)O[C@@H]2O[C@@]3(C)CC[C@H]4[C@H](C)CC[C@@H]1[C@@]24OO3 as the compound, how does the Activity read?
A: Active

Q: For C[C@H]1[C@@H](OCCOCCOCCO)O[C@@H]2O[C@@]3(C)CC[C@H]4[C@H](C)CC[C@@H]1[C@@]24OO3, which Activity is on record?
A: inactive

System: Plasmodium yoelii nigeriensis
Assay: Antimalarial activity against chloroquine-, mefloquine-, halofantrine-resistant Plasmodium yoelii nigeriensis blood stream schizonts infected in Swiss mouse assessed as disease cured mouse at 6 mg/kg, im administered once daily for 4 days measured on day 28
Assay type: functional, organism-based
Set-up: dose 6 mg/kg
Conditions: not given

Q: With C[C@H]1[C@@H](OCCCCCCCCCCO)O[C@@H]2O[C@@]3(C)CC[C@H]4[C@H](C)CC[C@@H]1[C@@]24OO3 as the compound, how does the Activity read?
A: inactive

System: Plasmodium yoelii nigeriensis
Assay: Antimalarial activity against chloroquine-, mefloquine-, halofantrine-resistant Plasmodium yoelii nigeriensis blood stream schizonts infected in Swiss mouse assessed as disease cured mouse at 3 mg/kg, im administered once daily for 4 days measured on day 28
Assay type: functional, organism-based
Set-up: dose 3 mg/kg
Conditions: not given

Q: With C[C@H]1[C@@H](OCCCCCCO)O[C@@H]2O[C@@]3(C)CC[C@H]4[C@H](C)CC[C@@H]1[C@@]24OO3 as the compound, how does the Activity read?
A: inactive

System: not listed separately
Assay: Lipophilicity, log P of the compound
Assay type: physicochemical
Conditions: octanol/water

Q: For C[C@H]1[C@@H](OCCCCCOC(=O)CCC(=O)O)O[C@@H]2O[C@@]3(C)CC[C@H]4[C@H](C)CC[C@@H]1[C@@]24OO3, which logP is on record?
A: 3.86

Q: For C[C@H]1[C@@H](OCCCCCCCCCCO)O[C@@H]2O[C@@]3(C)CC[C@H]4[C@H](C)CC[C@@H]1[C@@]24OO3, which logP is on record?
A: 6.05

Q: With C[C@H]1[C@@H](OCCCCCCO)O[C@@H]2O[C@@]3(C)CC[C@H]4[C@H](C)CC[C@@H]1[C@@]24OO3 as the compound, how does the logP read?
A: 4.38

Q: Which logP does the source give for C[C@H]1[C@@H](OCCOCCOCCO)O[C@@H]2O[C@@]3(C)CC[C@H]4[C@H](C)CC[C@@H]1[C@@]24OO3 here?
A: 2.68

Q: For C[C@H]1[C@@H](OCCOCCOCCOCCOC(=O)CCC(=O)O)O[C@@H]2O[C@@]3(C)CC[C@H]4[C@H](C)CC[C@@H]1[C@@]24OO3, which logP is on record?
A: 2.42

Q: Which logP does the source give for C[C@H]1[C@@H](OCCOCCOCCOC(=O)CCC(=O)O)O[C@@H]2O[C@@]3(C)CC[C@H]4[C@H](C)CC[C@@H]1[C@@]24OO3 here?
A: 2.54

Source: ChEMBL document CHEMBL2029316, “Linker-based hemisuccinate derivatives of artemisinin: synthesis and antimalarial assessment against multidrug-resistant Plasmodium yoelii nigeriensis in mice” (J Med Chem, 2012)
